{"source": "patent US5721359A", "about": "“Crystalline ceftiofur free acid” (Pharmacia & Upjohn Company, priority 1995, dated 1998)", "key": {"[1]": {"assay": "Comparison of time above minimum plasma concentration for ceftiofur derivatives", "format": "in vivo", "source_text": "Using the criteria for sustained release as the time which plasma concentrations remain above some minimum concentration (t>0.2), a comparison of various derivatives of ceftiofur can be made. […] This difference is of practical and statistical significance."}, "[2]": {"assay": "Plasma disposition of oil suspension of ceftiofur crystalline free acid vs aqueous solution of ceftiofur sodium in cattle (Example 6)", "format": "in vivo, cattle (Holstein calves)", "conditions": "SC; for t>0.2 (time ceftiofur metabolite concentrations remained above 0.2 μg/mL): 2.2 mg ceftiofur activity/kg", "method": "Sixteen Holstein calves were administered ceftiofur crystalline free acid in an oil suspension (100 mg/mL) or ceftiofur sodium (NAXCEL® Sterile Powder) as an aqueous solution (50 mg/mL) subcutaneously (SC) in a crossover study (each calf received each treatment), with a two-week washout period between doses (2.2 mg ceftiofur activity/kg body weight). Blood samples were obtained serially for 120 hours after drug administration for analysis of ceftiofur and metabolites (measured as desfuroylceftiofur acetamide by HPLC). The primary decision variable was the time ceftiofur metabolite concentrations remained above 0.2 μg/mL (t>0.2), with secondary decision variables being \"relative area under the concentration-time curve\" (AUC) of the treatments and injection site irritancy assessed antemortem by visual and manual inspection of the injection site over time. Both t>0.2 and AUC were calculated using both the predictive pharmacokinetic equation method and the direct graphical method of trapezoids (AUC) and log-linear interpolation (t>0.2)."}, "[3]": {"assay": "Stability in bulk, aqueous and other formulations", "format": "physicochemical"}, "[4]": {"assay": "Dissolution rate (Table II, FIG. 9)", "format": "physicochemical", "conditions": "shown graphically in FIG. 9", "source_text": "\"Dissolution rate\" is the kinetic translation of solubility for a well stirred system under sink conditions."}, "[5]": {"parameters": "species or system cattle", "conditions": "bovine, in vivo, sc, 4.4 mg/kg", "method": "Cattle were administered a single subcutaneous dose (4.4 mg/kg body weight) of crystalline ceftiofur free acid and amorphous ceftiofur free acid (both prepared and then formulated as described above in Examples 1, 3 and 4). The concentration of plasma ceftiofur and desfuroylceftiofur related metabolites were determined over time for 120 hours. The primary decision criteria (that most related to efficacy) was considered to be the time that the ceftiofur metabolite concentrations remained above 0.2 mcg/ml (t>0.2). Less important parameters calculated included \"area under the concentration-time curve\" (AUC) for each treatment and time to maximum concentrations (tmax).\nThe results are shown graphically in FIG. 7 below by plotting plasma concentration of desfuroylceftiofur acetamide (DCA) versus time using average data for 6 animals/treatment. […] This is especially important in light of the two forms obtaining statistically equivalent peak concentrations (9.1 mcg/ml for the amorphous ceftiofur free acid versus 7.3 mcg/ml for the crystalline ceftiofur free acid)."}, "Solubility": {"assay": "Solubility", "format": "physicochemical", "conditions": "for Solubility-pH7: pH 7; for solubility in aqueous solvents, comparison crystalline free acid vs crystalline hydrochloride: in words", "source_text": "\"Solubility\" is a direct consequence of a solid's structure and the intermolecular forces holding the solid together and is defined as the mount of drug which exists in solution when equilibrium is achieved between solution and solid state material."}, "Hygroscopity": {"assay": "Hygroscopity", "format": "physicochemical", "conditions": "for Hygroscopity: Table II", "source_text": "\"Hygroscopity\" is the ability of a compound to pick up moisture from or yield moisture to the atmosphere with changes in relative humidity."}, "[6]": {"assay": "In vitro dissolution of ceftiofur oil suspension formulations (Example 7)", "format": "physicochemical", "conditions": "100 mg/ml oil formulation, 500 ml pH 7 aqueous media, 50 RPM paddle, FIG. 6", "method": "100 mg samples of crystalline ceftiofur free acid, amorphous ceftiofur free acid (prepared as described in Example 1) and crystalline ceftiofur hydrochloride, which were all prepared as oil formulations as described in Example 4 above, were loaded into teflon dissolution cells and sealed with a constant surface area dialysis membrane. The loaded cells were placed in a standard dissolution apparatus containing 500 ml of pH 7 aqueous dissolution media which was stirred by a 50 RPM rotating paddle.\nThe results obtained are shown below in FIG. 6 below."}, "In vivo release": {"assay": "In vivo release", "conditions": "for In Vivo Release: Table II; for sustained release properties in vivo: in words", "source_text": "\"In-vivo release\" is the biological consequence of the dissolution rate of a compound which is characterized by time to maximum concentration and the maximum concentration in the biological fluid of interest."}, "[7]": {"assay": "Plasma disposition of crystalline ceftiofur hydrochloride and crystalline ceftiofur free acid oil suspensions in cattle (Example 9)", "format": "in vivo", "conditions": "SC, 2.2 mg/kg, oil suspension, 16 animals/treatment; separate studies", "method": "In separate but similarly designed studies conducted in the same laboratory, crystalline ceftiofur free acid (CFA) and crystalline ceftiofur hydrochloride (HCl) suspensions were administered subcutaneously to cattle at a dose of 2.2 mg/kg body weight. In each experiment, plasma samples were obtained for up to 120 hours after drug administration for determination of ceftiofur and its metabolites. The results are shown graphically in FIG. 8 below by plotting plasma concentration (on a logarithmic scale) versus time using average data for 16 animals/treatment. The primary decision criteria (that most related to efficacy) was considered to be the time that the ceftiofur metabolite concentrations remained above 0.2 mcg/ml (t>0.2). Less important parameters measures included \"area under the concentration-time curve\" (AUC) for each treatment and time to peak and peak concentrations."}, "[8]": {"assay": "Processing (micronization)", "format": "physicochemical", "conditions": "Table II, cell wraps: 'Difficult to micronize'"}, "[9]": {"assay": "Plasma disposition of aqueous suspensions of ceftiofur crystalline free acid in cattle (Example 5)", "format": "in vivo, cattle (Holstein calves)", "conditions": "aqueous suspension 100 mg/mL, single dose 1.1 mg ceftiofur activity/kg", "method": "Sixteen Holstein calves were administered ceftiofur crystalline free acid in an aqueous suspension (100 mg/mL) by the intramuscular (IM) or subcutaneous (SC) route of administration as a single dose of 1.1 mg ceftiofur activity/kg in a crossover study (each calf got each treatment), with a two-week washout between doses. Blood samples were obtained serially for 120 hours for analysis of ceftiofur and metabolites (measured as desfuroylceftiofur acetamide by HPLC). The primary decision variable was the time ceftiofur metabolite concentrations remained above 0.2 μg/mL (t>0.2), with secondary decision variables being \"relative area under the concentration-time curve\" (AUC) of the treatments and injection site irritancy assessed antemortem by visual and manual inspection of the injection sites over time. Both t>0.2 and AUC were calculated using both the predictive pharmacokinetic equation method and the direct graphical method of trapezoids (AUC) and log linear interpolation (t>0.2)."}, "[10]": {"conditions": "unstable in 6 weeks (cell wraps over two lines)"}, "[11]": {"conditions": "listed as Crystalline Free Acid"}}, "note": "“Also recorded” adds a separate entry of the source. Counter-ions that a name gives are not always drawn. Like-named read-outs stand apart in the source and are kept apart here.", "data": [{"molecule": "CO/N=C(\\C(=O)N[C@@H]1C(=O)N2C(C(=O)O)=C(CSC(=O)c3ccco3)CS[C@H]12)c1csc(N)n1", "note": "[ceftiofur sodium]", "values": [{"measurement": "rank order of time above the selected minimum plasma concentration (t>0.2)", "setting": "[1]; aqueous formulations", "result": "sodium<crystalline hydrochloride<crystalline free acid<zinc"}, {"measurement": "rank order of duration above minimum plasma concentration (t>0.2)", "setting": "[1]; oil formulations", "result": "sodium<crystallinehydrochloride<zinc<crystalline free acid"}, {"measurement": "t>0.2 (time ceftiofur metabolite concentrations remained above 0.2 μg/mL)", "setting": "[2]; aqueous solution 50 mg/mL", "result": 45.50, "unit": "h"}]}, {"molecule": "CON=C(C(=O)NC1C(=O)N2C(C(=O)O)=C(CSC(=O)c3ccco3)CSC12)c1csc(N)n1", "note": "(stereo not shown) [amorphous ceftiofur free acid, reference compound]", "values": [{"measurement": "Stability in Aqueous Formulations (>90% initial potency)", "setting": "[3]; [10]", "result": "Unstable"}, {"measurement": "Dissolution Rate", "setting": "[4]; listed as Amorphous Free Acid", "result": "Fast"}, {"measurement": "AUC (area under the concentration-time curve)", "setting": "[5]", "result": 70, "unit": "µg·h/mL"}, {"measurement": "peak concentrations", "setting": "[5]", "result": 9.1, "unit": "µg/mL"}, {"measurement": "t>0.2 (time metabolite concentrations remained above 0.2 mcg/ml)", "setting": "[5]", "result": 41, "unit": "h"}, {"measurement": "time to peak concentration (tmax)", "setting": "[5]", "result": 2, "unit": "h"}, {"measurement": "Solubility-pH7", "setting": "Solubility; listed as Amorphous Free Acid", "result": "≈ 100 mg/mL"}, {"measurement": "Hygroscopity", "setting": "Hygroscopity; listed as Amorphous Free Acid", "result": "High"}, {"measurement": "release from the oil formulation into the dissolution media", "setting": "[6]", "result": "very fast release"}, {"measurement": "In Vivo Release", "setting": "In vivo release; listed as Amorphous Free Acid", "result": "Fast"}]}, {"molecule": "CO/N=C(\\C(=O)N[C@@H]1C(=O)N2C(C(=O)O)=C(CSC(=O)c3ccco3)CS[C@H]12)c1csc(N)n1", "note": "[crystalline ceftiofur hydrochloride, reference compound]", "values": [{"measurement": "t>0.2 (time metabolite concentrations remained above 0.2 mcg/ml)", "setting": "[7]", "result": 38.5, "unit": "h"}, {"measurement": "Stability in Aqueous Formulations (>90% initial potency)", "setting": "[3]; [10]", "result": "Unstable"}, {"measurement": "Dissolution Rate", "setting": "[4]", "result": "Fast"}, {"measurement": "solubility in aqueous solvents, comparison crystalline free acid vs crystalline hydrochloride", "setting": "Solubility", "result": "much greater solubility than the crystalline free acid"}, {"measurement": "solubility", "setting": "Solubility; pH 7, pH 7, cell of crystalline hydrochloride salt, read-out: Solubility-pH7", "result": "~100", "unit": "mg/mL"}, {"measurement": "Hygroscopity", "setting": "Hygroscopity", "result": "Moderate"}, {"measurement": "release from the oil formulation into the dissolution media", "setting": "[6]", "result": "very fast release"}, {"measurement": "In Vivo Release", "setting": "In vivo release", "result": "Fast"}, {"measurement": "sustained release properties in vivo", "setting": "In vivo release", "result": "does not have useful sustained release properties"}, {"measurement": "Processing (micronize)", "setting": "[8]", "result": "Micronizes easier"}]}, {"molecule": "CON=C(C(=O)NC1C(=O)N2C(C(=O)O)=C(CSC(=O)c3ccco3)CSC12)c1csc(N)n1", "note": "(stereo not shown) [crystalline ceftiofur free acid]", "values": [{"measurement": "t>0.2 (time ceftiofur metabolite concentrations remained above 0.2 μg/mL)", "setting": "[9]; IM", "result": 26.98, "unit": "h"}, {"measurement": "t>0.2 (time ceftiofur metabolite concentrations remained above 0.2 μg/mL)", "setting": "[9]; SC, P=0.257 vs IM", "result": 30.43, "unit": "h"}, {"measurement": "rank order of time above the selected minimum plasma concentration (t>0.2)", "setting": "[1]; aqueous formulations", "result": "sodium<crystalline hydrochloride<crystalline free acid<zinc"}, {"measurement": "rank order of duration above minimum plasma concentration (t>0.2)", "setting": "[1]; oil formulations", "result": "the longest"}, {"measurement": "t>0.2 (time metabolite concentrations remained above 0.2 mcg/ml)", "setting": "[7]", "result": 121.6, "unit": "h"}, {"measurement": "Stability in Aqueous Formulations (>90% initial potency)", "setting": "[3]; >90% initial potency", "result": "Stable for 6 months"}, {"measurement": "stability (in bulk and formulations) relative to crystalline hydrochloride salt and amorphous free acid", "setting": "[3]; in words", "result": "superior"}, {"measurement": "Dissolution Rate", "setting": "[4]", "result": "slow dissolution rate; also recorded: slower"}, {"measurement": "Dissolution Rate", "setting": "[4]; [11]", "result": "Slow"}, {"measurement": "AUC (area under the concentration-time curve)", "setting": "[5]", "result": 183, "unit": "µg·h/mL"}, {"measurement": "AUC compared with amorphous ceftiofur free acid", "setting": "[5]", "result": "more than twice"}, {"measurement": "peak concentrations", "setting": "[5]", "result": 7.3, "unit": "µg/mL"}, {"measurement": "t>0.2 (time metabolite concentrations remained above 0.2 mcg/ml)", "setting": "[5]", "result": 101, "unit": "h"}, {"measurement": "time to peak concentration (tmax)", "setting": "[5]", "result": 8, "unit": "h"}, {"measurement": "solubility in aqueous solvents, comparison crystalline free acid vs crystalline hydrochloride", "setting": "Solubility", "result": "lower solubility in aqueous solvents than its crystalline hydrochloride salt"}, {"measurement": "solubility in non-polar solvents", "setting": "Solubility; non-polar solvents", "result": "insoluble in non-polar solvents"}, {"measurement": "Solubility-pH7", "setting": "Solubility; [11]", "result": "≈ 8 mg/mL"}, {"measurement": "solubility in water", "setting": "Solubility; water", "result": "sparingly soluble in water"}, {"measurement": "Hygroscopity", "setting": "Hygroscopity; [11]", "result": "Low"}, {"measurement": "hygroscopicity relative to crystalline hydrochloride salt and amorphous free acid", "setting": "Hygroscopity; in words", "result": "superior"}, {"measurement": "release from the oil formulation into the dissolution media", "setting": "[6]", "result": "significantly reduced release"}, {"measurement": "In Vivo Release", "setting": "In vivo release; [11]", "result": "Prolonged"}, {"measurement": "sustained release properties in vivo", "setting": "In vivo release", "result": "has sustained release properties in vivo"}, {"measurement": "Processing (micronize)", "setting": "[8]; [11]", "result": "Micronizes easier"}, {"measurement": "terminal phase half-life (absorption phase, flip-flop model) compared with ceftiofur sodium", "setting": "[2]; crystalline free acid in oil, 2.2 mg/kg", "result": "longer"}, {"measurement": "t>0.2 (time ceftiofur metabolite concentrations remained above 0.2 μg/mL)", "setting": "[2]; oil suspension 100 mg/mL, P<0.0001 vs ceftiofur sodium", "result": 121.58, "unit": "h"}, {"measurement": "bioavailability compared with aqueous solution of ceftiofur sodium", "setting": "[2]; oil suspension vs aqueous solution, 2.2 mg/kg, P>0.05", "result": "equally bioavailable"}]}, {"molecule": "zinc", "values": [{"measurement": "rank order of duration above minimum plasma concentration (t>0.2)", "setting": "[1]; in vivo", "result": "sodium<crystallinehydrochloride<zinc<crystalline free acid"}, {"measurement": "rank order of time above the selected minimum plasma concentration (t>0.2)", "setting": "[1]; in vivo", "result": "sodium<crystalline hydrochloride<crystalline free acid<zinc"}]}]}
